Like-named read-outs stand apart in the source and are kept apart here.
How the values were obtained:
[1] = MDCK-MDR1 cell monolayer permeability assay; format: in vitro ADME; details: dog
From the text: (§1) As summarized in Table 1, we were encouraged to find that the initial ketone analogs prepared, namely, 15 (6-linked) and 20 (5-linked), were quite active in an O. volvulus molting assay we used as a primary indicator of antiparasitic activity[30],[31] and were only weakly active in a G2/M arrest,[32] indicative of the interaction with mammalian tubulin. As described above, our hypothesis was to reduce Pgp efflux liability through elimination of the hydrogen-bond donor associated with the N–H of the amide linker, as this has been shown in the literature to be a contributor to recognition by Pgp.[33],[34] […] We were disappointed to find that the 5-linked analog 22 was poorly selective and the 6-linked analog 23 was only weakly active.

[2] = system: MDCK-MDR1 cell monolayer; test: MDCK-MDR1 cell monolayer permeability assay; format: in vitro ADME
From the text: as §1

[3] = Metabolite ID studies, in vitro and in vivo; format: in vitro ADME; details: in vitro or in vivo experiments
From the text: However, the metabolism of flubendazole by the reduction of the ketone leads to short-lived clastogenic metabolites at low levels that may pose a minimal risk.[28]

[4] = Tolerability of once daily dosing to gerbils over 7 days; format: in vivo
From the text: (§2) In addition, the concentrations achieved at these doses were well in excess of the O. volvulus IC50, a requirement for in vivo activity that we had hypothesized on the basis of earlier work in the amide-linked series.

[5] = system: Brugia pahangi; test: In vivo efficacy in the L3 Brugia pahangi gerbil model; details: for Number of Worms Recovered, Avg Female Worms / Number of Worms Recovered, Avg Male Worms: PO, 100 mg/kg, recovery day 63
Procedure: For our in vivo model, gerbils were infected by injecting B. pahangi third-stage larvae (L3) that were subsequently allowed to develop to adult worms over several months. Once stable infections had been established, 21 was administered as a suspension via once-daily oral gavage at a dose of 100 mg/kg for 7, 14, or 28 days. All animals were maintained until day 63 after the start of dosing, at which time adult worms were recovered from the peritoneal cavity and microfilariae were quantified in blood samples. Flubendazole (5 mg/kg, SC × 5 days) was included as a positive control in this study. […]
(§3) in comparison to the number of control larvae that had successfully molted. IC50 values were calculated using GraphPad Prism v6.0 (http://www.graphpad.com). See Bullman et al., PLoS
(§4) Negl. Trop. Dis., 2015, 9, e3534 for further details.
(§5) Adult Brugia malayi in vivo model procedure.
(§6) Gerbils (Meriones unguiculatus) were infected by transplantation of 10 male and 10 female adult Brugia malayi into the peritoneal cavity. Gerbils were acclimated for 7 days prior to treatment. Animals were dosed based on their body weight prior to each dosing. Animals were administered their doses at the same time each day and receive standard rodent laboratory diet and water ad libitum. Gerbils were humanely euthanized at the conclusion of each study.
(§7) Peritoneal counts of male and female adult B. malayi and visual condition of the peritoneum […]
(§8) L3 Brugia pahangi in vivo model procedure.
(§9) Male gerbils (Meriones unguiculatus) approximately 6 weeks of age (50-60 g) were purchased from Charles Rivers (USA, Kingston K62 Gerbils) and infected by intraperitoneal injection with 200 Brugia pahangi third-stage larvae (L3) per animal (Filariatech, Inc., Athens, GA). Gerbils were housed with no more than 5 animals per cage and maintained 9 months prior to treatment. All gerbils were dosed in accordance with their body weight determined prior to each dosing. Animals were administered their doses at the same time each day and are allowed to feed and drink ad libitum. Gerbils were euthanized following approved institutional protocols. Euthanized animals were weighed and examined for external and visceral pathologies. The adult Brugia worms were recovered by opening the body cavity and washing the peritoneal cavity with 100 mL of phosphate buffered saline. Male and female worms were counted using a dissecting microscope.
(§10) Litomosoides sigmodontis in vivo model procedure. 2
(§11) All animal experiments with L. sigmodontis were conducted at the Institute for Medical Microbiology, Immunology and Parasitology (IMMIP), University Hospital of Bonn, in accordance to the European Union animal welfare guidelines. All protocols were approved by the local authorities (Landesamt für Natur, Umwelt und Verbraucherschutz, Cologne, Germany (AZ 84- […]
(§12) Janvier (Saint-Berthevin, France) and were housed at the animal facility of the IMMIP in individually ventilated cages on a 12h light/dark cycle with food and water ad libidum. Mice were infected at 6-8 weeks of age via exposure to the natural mite vector Ornithonyssus bacoti

[6] = Metabolic stability (Clint) in human microsomes; format: in vitro ADME
From the text: as §1

[7] = system: O. volvulus; test: O. volvulus molting assay; format: cell-based; details: Onchocerca volvulus; molting assay
From the text: as §1, with “active. […]” for “active.”
as §3, §4, §5, §6, §7, §8, §9, §10, §11, §12

[8] = Pharmacokinetics in Mongolian gerbils; format: in vivo
From the text: as §2

[9] = system: mammalian tubulin (G2/M arrest); test: G2/M arrest assay, indicative of interaction with mammalian tubulin; format: cell-based
From the text: as §1

For `COC(=O)Nc1nc2ccc(C(=O)c3cccc4c3B(O)OC4)cc2[nH]1` [compound 21], the Papp [1] was 56.6 ×10⁻⁶ cm/s, the MDCK-MDR1 Papp (A-B) [2] was 56.6 ×10⁻⁶ cm/s and the “metabolism in metabolite ID studies” value [3] was “have not observed a significant metabolism”. The tolerability [4] was “well tolerated”, the “effective in killing female worms” value ([5]; 100 mg/kg PO once daily for 14 days) was 99% and the “effective in killing female worms” value ([5]; 100 mg/kg PO once daily for 28 days) was 99%. The effect on worms ([5]; 100 mg/kg PO once daily for only 7 days) was “very little effect”, the “Number of Worms Recovered, Avg Female Worms” value (from here on “Number … Avg Female Worms”) ([5]; 7 days, QD) was 13.0 and the “Number of Worms Recovered, Avg Male Worms” value (from here on “Number … Avg Male Worms”) ([5]; 7 days, QD) was 25.2. The “Number … Avg Female Worms” value ([5]; 14 days, QD) was 0.6, the “Number … Avg Male Worms” value ([5]; 14 days, QD) was 11.4 and the “Number … Avg Female Worms” value ([5]; 28 days QD) was 0.1. The “Number … Avg Male Worms” value ([5]; 28 days QD) was 11.1, the microsomal CLint [6] was 5.9 µL/min/mg and the IC50 [7] was 100 nM. The CLint scaled ([8]; Mongolian gerbil, blood, 2 mg/kg, Table 3, IV, dose 2) was 4.82 mL/min/kg, the AUC0-last ([8]; Table 3, IV, dose 2) was 5950 ng·h/mL and the Cmax ([8]; Table 3, IV, dose 2) was 1560 ng/mL. The AUC0-last ([8]; Table 3, PO, dose 10) was 61700 ng·h/mL, the Cmax ([8]; Table 3, PO, dose 10) was 5750 ng/mL and the AUC(0-t) ([8]; blood, 2 mg/kg, Mongolian gerbils, dose 2, IV, read-out: AUC0–24) was 5950 ng·h/mL. It also gave a Cmax ([8]; blood, 2 mg/kg, Mongolian gerbils, dose 2, IV, read-out: Cmax) of 1560 ng/mL, a Vd ([8]; blood, 2 mg/kg, Table 3, IV, dose 2, read-out: Vdss) of 3.19 L/kg and an AUC(0-t) ([8]; blood, 10 mg/kg, Mongolian gerbils, dose 10, PO, read-out: AUC0–24) of 61700 ng·h/mL. For the same compound, the Cmax ([8]; blood, 10 mg/kg, Mongolian gerbils, dose 10, PO, read-out: Cmax) was 5750 ng/mL, the AUC(0-t) ([8]; blood, 10 mg/kg, Table 3, SC, dose 10, read-out: AUC0-last) was 35700 ng·h/mL and the Cmax ([8]; blood, 10 mg/kg, Table 3, SC, dose 10, read-out: Cmax) was 3130 ng/mL. The AUC(0-t) ([8]; blood, 30 mg/kg, Table 3, PO, dose 30, read-out: AUC0-last) was 196000 ng·h/mL, the Cmax ([8]; blood, 30 mg/kg, Table 3, PO, dose 30, read-out: Cmax) was 17200 ng/mL and the AUC(0-t) ([8]; blood, 60 mg/kg, Table 3, PO, dose 60, read-out: AUC0-last) was 361000 ng·h/mL. For the same compound, the Cmax ([8]; blood, 60 mg/kg, Table 3, PO, dose 60, read-out: Cmax) was 26300 ng/mL, the AUC(0-t) ([8]; blood, 100 mg/kg, Table 3, PO, dose 100, read-out: AUC0-last) was 479000 ng·h/mL and the Cmax ([8]; blood, 100 mg/kg, Table 3, PO, dose 100, read-out: Cmax) was 34500 ng/mL. It also gave a bioavailability ([8]; blood, po, 10 mg/kg, Mongolian gerbils, dose 10, PO, read-out: bioavailability (%F)) of roughly 100%, a bioavailability ([8]; blood, po, 10 mg/kg, Table 3, PO, dose 10, read-out: %F) of 100% and a bioavailability ([8]; blood, sc, 10 mg/kg, Table 3, SC, dose 10, read-out: %F) of 100%. The “accumulation of the compound” value ([8]; once daily dosing to gerbils over 7 days) was “no accumulation”, the “dose proportionality of exposure” value ([8]; oral dosing to gerbils, up to 100 mg/kg) was “dose proportional” and the IC50 [9] was greater than 38000 nM.

Source: publication PMC7026882, “Macrofilaricidal Benzimidazole–Benzoxaborole Hybrids as an Approach to the Treatment of River Blindness: Part 2. Ketone Linked Analogs” (ACS Infectious Diseases, 2019)
